Assay results published in PubChem BioAssay AID1259407 (Chemical Carcinogenesis Research Information System (CCRIS), 2018).
Active and inactive are the calls of the source. How the calls were made is not given here.

Tested on: CCRIS mutagenicity, Ames/micronucleus/aberration tests
Assay: CCRIS mutagenicity studies
[1] = Test System: AMES SALMONELLA TYPHIMURIUM, Strain/Indicator: TA98, Metabolic Activation: NONE, Method: STANDARD PLATE
[2] = Test System: AMES SALMONELLA TYPHIMURIUM, Strain/Indicator: TA98, Metabolic Activation: RAT, LIVER, S-9, AROCLOR 1254, Method: STANDARD PLATE
[3] = Test System: AMES SALMONELLA TYPHIMURIUM, Strain/Indicator: TA100, Metabolic Activation: NONE, Method: STANDARD PLATE
[4] = Test System: AMES SALMONELLA TYPHIMURIUM, Strain/Indicator: TA100, Metabolic Activation: RAT, LIVER, S-9, AROCLOR 1254, Method: STANDARD PLATE
[5] = Test System: AMES SALMONELLA TYPHIMURIUM, Strain/Indicator: TA1538, Metabolic Activation: RAT, LIVER, S-9, AROCLOR 1254, Method: STANDARD PLATE
[6] = Test System: AMES SALMONELLA TYPHIMURIUM, Strain/Indicator: TA1535, Metabolic Activation: NONE, Method: STANDARD PLATE
[7] = Test System: AMES SALMONELLA TYPHIMURIUM, Strain/Indicator: TA1535, Metabolic Activation: RAT, LIVER, S-9, AROCLOR 1254, Method: STANDARD PLATE
[8] = Test System: AMES SALMONELLA TYPHIMURIUM, Strain/Indicator: TA1537, Metabolic Activation: NONE, Method: STANDARD PLATE
[9] = Test System: AMES SALMONELLA TYPHIMURIUM, Strain/Indicator: TA1537, Metabolic Activation: RAT, LIVER, S-9, AROCLOR 1254, Method: STANDARD PLATE
[10] = Test System: AMES SALMONELLA TYPHIMURIUM, Strain/Indicator: TA1538, Metabolic Activation: NONE, Method: STANDARD PLATE

Q: For `CCOc1cc(N=Nc2ccc(N(CCO)CCO)cc2)ccc1N=Nc1c(S(=O)(=O)O)cc2ccc(N)cc2c1O`, which mutagenic call [1] is on record?
A: inactive; negative

Q: What about the mutagenic call [2] of the same compound?
A: active; positive

Q: What about the mutagenic call [3] of the same compound?
A: inactive; negative

Q: And the mutagenic call [4]?
A: inactive; negative

Q: What about the mutagenic call [5] of the same compound?
A: active; positive

Q: For `C[C@@H]1[C@H](O)[C@@H](C)/C=C/C=C/C=C/C=C/C=C/C=C/C=C/[C@H](O[C@@H]2O[C@H](C)[C@@H](O)[C@H](N)[C@@H]2O)C[C@@H]2O[C@](O)(C[C@@H](O)C[C@@H](O)[C@H](O)CC[C@@H](O)C[C@@H](O)CC(=O)O[C@H]1C)C[C@H](O)[C@H]2C(=O)O`, which mutagenic call (End Point: IN VITRO CHROMOSOMAL ABERRATIONS, Test System: CHO-LB CELLS, Metabolic Activation: NONE) is on record?
A: inactive; negative

Q: What about the mutagenic call (End Point: IN VITRO CHROMOSOMAL ABERRATIONS, Test System: CHO-LB CELLS, Metabolic Activation: RAT, LIVER, S-9, AROCLOR 1254) of the same compound?
A: inactive; negative

Q: What about the mutagenic call (Test System: AMES SALMONELLA TYPHIMURIUM, Strain/Indicator: TA97, Metabolic Activation: HAMSTER, LIVER, S-9, AROCLOR 1254 (10 OR 30%), Method: PREINCUBATION) of the same compound?
A: inactive; negative

Q: What about the mutagenic call (Test System: AMES SALMONELLA TYPHIMURIUM, Strain/Indicator: TA97, Metabolic Activation: NONE, Method: PREINCUBATION) of the same compound?
A: inactive; negative

Q: And the mutagenic call (Test System: AMES SALMONELLA TYPHIMURIUM, Strain/Indicator: TA97, Metabolic Activation: RAT, LIVER, S-9, AROCLOR 1254 (10 OR 30%), Method: PREINCUBATION)?
A: inactive; negative

Q: And the mutagenic call (Test System: AMES SALMONELLA TYPHIMURIUM, Strain/Indicator: TA98, Metabolic Activation: HAMSTER, LIVER, S-9, AROCLOR 1254 (10 OR 30%), Method: PREINCUBATION)?
A: inactive; negative

Q: What about the mutagenic call (Test System: AMES SALMONELLA TYPHIMURIUM, Strain/Indicator: TA98, Metabolic Activation: NONE, Method: PREINCUBATION) of the same compound?
A: inactive; negative

Q: And the mutagenic call (Test System: AMES SALMONELLA TYPHIMURIUM, Strain/Indicator: TA98, Metabolic Activation: RAT, LIVER, S-9, AROCLOR 1254 (10 OR 30%), Method: PREINCUBATION)?
A: inactive; negative

Q: What about the mutagenic call (Test System: AMES SALMONELLA TYPHIMURIUM, Strain/Indicator: TA100, Metabolic Activation: HAMSTER, LIVER, S-9, AROCLOR 1254 (10 OR 30%), Method: PREINCUBATION) of the same compound?
A: inactive; negative

Q: What about the mutagenic call (Test System: AMES SALMONELLA TYPHIMURIUM, Strain/Indicator: TA100, Metabolic Activation: NONE, Method: PREINCUBATION) of the same compound?
A: inactive; negative

Q: And the mutagenic call (Test System: AMES SALMONELLA TYPHIMURIUM, Strain/Indicator: TA100, Metabolic Activation: RAT, LIVER, S-9, AROCLOR 1254 (10 OR 30%), Method: PREINCUBATION)?
A: inactive; negative

Q: What about the mutagenic call (Test System: AMES SALMONELLA TYPHIMURIUM, Strain/Indicator: TA1535, Metabolic Activation: HAMSTER, LIVER, S-9, AROCLOR 1254 (10 OR 30%), Method: PREINCUBATION) of the same compound?
A: inactive; negative

Q: And the mutagenic call (Test System: AMES SALMONELLA TYPHIMURIUM, Strain/Indicator: TA1535, Metabolic Activation: NONE, Method: PREINCUBATION)?
A: inactive; negative

Q: What about the mutagenic call (Test System: AMES SALMONELLA TYPHIMURIUM, Strain/Indicator: TA1535, Metabolic Activation: RAT, LIVER, S-9, AROCLOR 1254 (10 OR 30%), Method: PREINCUBATION) of the same compound?
A: inactive; negative

Q: What about the mutagenic call (Test System: AMES SALMONELLA TYPHIMURIUM, Strain/Indicator: TA1537, Metabolic Activation: HAMSTER, LIVER, S-9, AROCLOR 1254 (30%), Method: PREINCUBATION) of the same compound?
A: inactive; negative

Q: And the mutagenic call (Test System: AMES SALMONELLA TYPHIMURIUM, Strain/Indicator: TA1537, Metabolic Activation: NONE, Method: PREINCUBATION)?
A: inactive; negative

Q: And the mutagenic call (Test System: AMES SALMONELLA TYPHIMURIUM, Strain/Indicator: TA1537, Metabolic Activation: RAT, LIVER, S-9, AROCLOR 1254 (30%), Method: PREINCUBATION)?
A: inactive; negative

Q: `Cc1cc(C(O)c2ncc([N+](=O)[O-])n2C)c(O)c(C(C)(C)C)c1` (stereo unspecified) was tested. Which mutagenic call [1] did it give?
A: inactive; negative

Q: And the mutagenic call [2]?
A: inactive; negative

Q: What about the mutagenic call [3] of the same compound?
A: inactive; negative

Q: And the mutagenic call [4]?
A: inactive; negative

Q: What about the mutagenic call [6] of the same compound?
A: inactive; negative

Q: What about the mutagenic call [7] of the same compound?
A: inactive; negative

Q: What about the mutagenic call [8] of the same compound?
A: inactive; negative

Q: And the mutagenic call [9]?
A: inactive; negative

Q: And the mutagenic call [10]?
A: inactive; negative

Q: And the mutagenic call [5]?
A: inactive; negative

Q: Which results are given for `CC1(C)[C@@H]2CC[C@@]1(C)C(=O)C2=O`?
A: mutagenic call (Test System: AMES SALMONELLA TYPHIMURIUM, Strain/Indicator: TA97A, Metabolic Activation: NONE, Method: STANDARD PLATE): inactive; negative; mutagenic call (Test System: AMES SALMONELLA TYPHIMURIUM, Strain/Indicator: TA97A, Metabolic Activation: RAT LIVER S-9, AROCLOR 1254, Method: STANDARD PLATE): inactive; negative; mutagenic call (Test System: AMES SALMONELLA TYPHIMURIUM, Strain/Indicator: TA98, Metabolic Activation: HAMSTER, LIVER, S-9, AROCLOR 1254, Method: STANDARD PLATE): inactive; negative; mutagenic call [1]: inactive; negative; mutagenic call (Test System: AMES SALMONELLA TYPHIMURIUM, Strain/Indicator: TA98, Metabolic Activation: RAT LIVER S-9, AROCLOR 1254, Method: STANDARD PLATE): inactive; negative; mutagenic call [2]: inactive; negative; mutagenic call (Test System: AMES SALMONELLA TYPHIMURIUM, Strain/Indicator: TA100, Metabolic Activation: HAMSTER, LIVER, S-9, AROCLOR 1254, Method: STANDARD PLATE): inactive; negative; mutagenic call [3]: inactive; negative; mutagenic call (Test System: AMES SALMONELLA TYPHIMURIUM, Strain/Indicator: TA100, Metabolic Activation: RAT LIVER S-9, AROCLOR 1254, Method: STANDARD PLATE): inactive; negative; mutagenic call [4]: inactive; negative; mutagenic call (Test System: AMES SALMONELLA TYPHIMURIUM, Strain/Indicator: TA102, Metabolic Activation: NONE, Method: STANDARD PLATE): inactive; negative; mutagenic call (Test System: AMES SALMONELLA TYPHIMURIUM, Strain/Indicator: TA102, Metabolic Activation: RAT LIVER S-9, AROCLOR 1254, Method: STANDARD PLATE): inactive; negative; mutagenic call (Test System: AMES SALMONELLA TYPHIMURIUM, Strain/Indicator: TA1535, Metabolic Activation: HAMSTER, LIVER, S-9, AROCLOR 1254, Method: STANDARD PLATE): inactive; negative; mutagenic call [6]: inactive; negative; mutagenic call [7]: inactive; negative; mutagenic call (Test System: AMES SALMONELLA TYPHIMURIUM, Strain/Indicator: TA1537, Metabolic Activation: HAMSTER, LIVER, S-9, AROCLOR 1254, Method: STANDARD PLATE): inactive; negative; mutagenic call [8]: inactive; negative; mutagenic call [9]: inactive; negative; mutagenic call (Test System: AMES SALMONELLA TYPHIMURIUM, Strain/Indicator: TA1538, Metabolic Activation: HAMSTER, LIVER, S-9, AROCLOR 1254, Method: STANDARD PLATE): inactive; negative; mutagenic call [10]: inactive; negative; mutagenic call [5]: inactive; negative; mutagenic call (Test System: Mouse lymphoma, Strain/Indicator: L5178Y (tk+/tk-), Metabolic Activation: None, Method: Suspension/plate): active; positive; mutagenic call (Test System: Mouse lymphoma, Strain/Indicator: L5178Y (tk+/tk-), Metabolic Activation: Rat, Liver, S-9, Aroclor 1254, Method: Suspension/plate): inactive; negative

Q: How did the mutagenic call (End Point: IN VITRO MICRONUCLEUS, Test System: CHL/IU CELLS, Metabolic Activation: NONE) turn out when `COc1ccc2c(c1)c(CC(=O)OC(C)c1ccccc1)c(C)n2C(=O)c1ccc(Cl)cc1` (stereo unspecified) was run?
A: active; positive
